# Source: patent publication US8952024B2, “Herbicidal pyrimidone derivatives” (E I du Pont de Nemours and Company, priority 2009, dated 2015)
# Key:
# Type in all cases: in vivo
# corn (Zea mays) = assay: Test A pre-/postemergence plant response
# Method in brief: (§1)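 Greenhouse pots of loam/sand received directed preemergence soil sprays or postemergence sprays (plants 2–10 cm, 1–2 leaf stage), compounds formulated in non-phytotoxic solvent with surfactant. Injury was rated visually versus untreated controls after about ten days on a 0 (no effect) to 100 (complete control) scale.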
# [1] = tested on: barnyardgrass (Echinochloa crus-galli); assay: Test A pre-/postemergence plant response
# Method in brief: as §1
# [2] = tested on: pigweed (Amaranthus retroflexus); assay: Test A pre-/postemergence plant response
# Method in brief: as §1
# [3] = tested on: giant foxtail (Setaria faberii); assay: Test A pre-/postemergence plant response
# Method in brief: as §1
# [4] = tested on: umbrella sedge (Cyperus difformis); assay: Test B flooded paddy test; details: for Plant response rating, Sedge, Umbrella: Flood (flooded paddy test), 13 to 15 days
# Method in brief: (§2)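 2-leaf seedlings; pots flooded 3 cm over soil at treatment; cpd dosed into floodwater, depth kept constant. Greenhouse 13–15 d. Visual rating vs untreated controls, 0 = no effect, 100 = complete control.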
# rice (Oryza sativa) = assay: Test B flooded paddy test; details: for Plant response rating, Rice: Flood (flooded paddy test), 13 to 15 days
# Method in brief: as §2
# [5] = tested on: barnyardgrass (Echinochloa crus-galli); assay: Test B flooded paddy test; details: for Plant response rating, Barnyardgrass: Flood (flooded paddy test), 13 to 15 days
# Method in brief: as §2
# [6] = tested on: ducksalad (Heteranthera limosa); assay: Test B flooded paddy test; details: for Plant response rating, Ducksalad: Flood (flooded paddy test), 13 to 15 days
# Method in brief: as §2
# [7] = Postemergence, 125 g ai/ha, 0 to 100 scale where 0 is no effect and 100 is complete control
# [8] = Postemergence, 500 g ai/ha, visual injury, 0 to 100 scale (0 no effect, 100 complete control), approx. ten days
# [9] = Preemergence, 125 g ai/ha, 0 to 100 scale, 0 = no effect, 100 = complete control
# [10] = Preemergence, 500 g ai/ha, 0 to 100 scale, 0 = no effect, 100 = complete control
# [11] = Postemergence, 125 g ai/ha, visual injury, 0 to 100 scale (0 no effect, 100 complete control), approx. ten days
# [12] = Postemergence, 500 g ai/ha, 0 to 100 scale, 0 = no effect, 100 = complete control, approx. ten days
# [13] = Preemergence, 500 g ai/ha, visual injury, 0 to 100 scale (0 no effect, 100 complete control), approx. ten days
# [14] = 250 g ai/ha, flooded paddy test, visual rating on 0 to 100 scale (0 no effect, 100 complete control) after 13 to 15 days
# [15] = 31 g ai/ha, scale of 0 to 100 where 0 is no effect and 100 is complete control
# [16] = 62 g ai/ha, scale 0 to 100, 0 is no effect, 100 is complete control
# [17] = 125 g ai/ha, scale 0 to 100, 0 is no effect, 100 is complete control
smiles,measurement,setting,value
"O=C1CCCC(O)=C1C(=O)c1cnc(-c2ccccc2)n(C2CC[S+]([O-])CC2)c1=O (mixture of isomers) [Compound 169, 5-[(2-hydroxy-6-oxo-1-cyclohexen-1-yl)carbonyl]-2-phenyl-3-(trans/cis-tetrahydro-1-oxido-2H-thiopyran-4-yl)-4(3H)-pyrimidinone]","Plant response rating, Corn",corn (Zea mays); [7],0
same,Corn plant response rating,corn (Zea mays); [8],30
same,"Plant response rating, Corn",corn (Zea mays); [9],0
same,"Plant response rating, Corn",corn (Zea mays); [10],20
same,"Plant response rating, Barnyardgrass",[1]; [7],90
same,Barnyardgrass plant response rating,[1]; [8],100
same,"Plant response rating, Barnyardgrass",[1]; [9],0
same,"Plant response rating, Barnyardgrass",[1]; [10],50
same,"Plant response rating, Pigweed",[2]; [7],100
same,Pigweed plant response rating,[2]; [8],100
same,"Plant response rating, Pigweed",[2]; [9],0
same,"Plant response rating, Pigweed",[2]; [10],50
same,"Plant response rating, Foxtail, Giant",[3]; [7],80
same,"Foxtail, Giant plant response rating",[3]; [8],100
same,"Plant response rating, Foxtail, Giant",[3]; [9],40
same,"Plant response rating, Foxtail, Giant",[3]; [10],50
COc1cccc(-n2c(-c3ccccc3)ncc(C(=O)C3=C(O)CCCC3=O)c2=O)c1 [Compound 19],Corn plant response rating,corn (Zea mays); [11],0
same,"Plant response rating, Corn",corn (Zea mays); [12],10
same,"Plant response rating, Corn",corn (Zea mays); [9],0
same,"Plant response rating, Corn",corn (Zea mays); [13],0
same,Barnyardgrass plant response rating,[1]; [11],0
same,"Plant response rating, Barnyardgrass",[1]; [12],70
same,"Plant response rating, Barnyardgrass",[1]; [9],10
same,"Plant response rating, Barnyardgrass",[1]; [13],90
same,Pigweed plant response rating,[2]; [11],80
same,"Plant response rating, Pigweed",[2]; [12],100
same,"Plant response rating, Pigweed",[2]; [9],80
same,"Plant response rating, Pigweed",[2]; [13],90
same,"Foxtail, Giant plant response rating",[3]; [11],20
same,"Plant response rating, Foxtail, Giant",[3]; [12],50
same,"Plant response rating, Foxtail, Giant",[3]; [9],10
same,"Plant response rating, Foxtail, Giant",[3]; [13],30
same,"Plant response rating, Flood, Sedge, Umbrella",[4]; [14],95
same,"Plant response rating, Sedge, Umbrella",[4]; [15],0
same,"Plant response rating, Sedge, Umbrella",[4]; [16],70
same,"Plant response rating, Sedge, Umbrella",[4]; [17],85
same,"Plant response rating, Flood, Rice",rice (Oryza sativa); [14],0
same,"Plant response rating, Rice",rice (Oryza sativa); [15],0
same,"Plant response rating, Rice",rice (Oryza sativa); [16],0
same,"Plant response rating, Rice",rice (Oryza sativa); [17],0
same,"Plant response rating, Flood, Barnyardgrass",[5]; [14],15
same,"Plant response rating, Barnyardgrass",[5]; [15],0
same,"Plant response rating, Barnyardgrass",[5]; [16],0
same,"Plant response rating, Barnyardgrass",[5]; [17],0
same,"Plant response rating, Flood, Ducksalad",[6]; [14],90
same,"Plant response rating, Ducksalad",[6]; [15],0
same,"Plant response rating, Ducksalad",[6]; [16],75
same,"Plant response rating, Ducksalad",[6]; [17],85
O=C1CCCC(O)=C1C(=O)c1cnc(C2CC2)n(C2CCCCC2)c1=O [Compound 160],"Plant response rating, Corn",corn (Zea mays); [7],20
same,Corn plant response rating,corn (Zea mays); [8],60
same,"Plant response rating, Corn",corn (Zea mays); [9],0
same,"Plant response rating, Corn",corn (Zea mays); [10],20
same,"Plant response rating, Barnyardgrass",[1]; [7],90
same,Barnyardgrass plant response rating,[1]; [8],100
same,"Plant response rating, Barnyardgrass",[1]; [9],40
same,"Plant response rating, Barnyardgrass",[1]; [10],80
same,"Plant response rating, Pigweed",[2]; [7],100
same,Pigweed plant response rating,[2]; [8],100
same,"Plant response rating, Pigweed",[2]; [9],80
same,"Plant response rating, Pigweed",[2]; [10],100
same,"Plant response rating, Foxtail, Giant",[3]; [7],70
same,"Foxtail, Giant plant response rating",[3]; [8],80
same,"Plant response rating, Foxtail, Giant",[3]; [9],20
same,"Plant response rating, Foxtail, Giant",[3]; [10],70
CCCCn1c(-c2ccccc2)ncc(C(=O)C2=C(O)C3CCC(C3)C2=O)c1=O (stereo not shown) [Compound 240],"Plant response rating, Corn",corn (Zea mays); [7],40
same,Corn plant response rating,corn (Zea mays); [8],80
same,"Plant response rating, Corn",corn (Zea mays); [9],0
same,"Plant response rating, Corn",corn (Zea mays); [10],40
same,"Plant response rating, Barnyardgrass",[1]; [7],100
same,Barnyardgrass plant response rating,[1]; [8],100
same,"Plant response rating, Barnyardgrass",[1]; [9],40
same,"Plant response rating, Pigweed",[2]; [7],90
same,Pigweed plant response rating,[2]; [8],100
same,"Plant response rating, Pigweed",[2]; [9],20
same,"Plant response rating, Pigweed",[2]; [10],100
same,"Plant response rating, Foxtail, Giant",[3]; [7],90
same,"Foxtail, Giant plant response rating",[3]; [8],100
same,"Plant response rating, Foxtail, Giant",[3]; [9],40
same,"Plant response rating, Foxtail, Giant",[3]; [10],80
